Measurements published in patent US20100113337A1, “METHOD FOR REDUCING INCIDENCE OR RATE OF DEVELOPMENT OF SKIN CANCERS AND RELATED CONDITIONS” (Clinuvel Pharmaceuticals Limited, priority 2006, published 2010).

What was measured:
[1] = system: human volunteers; conditions: cited from earlier work
[2] = system: Hairless albino Sh:HR-1 mice; assay: UVB induced skin carcinogenesis in hairless mice (tumour multiplicity); assay type: in vivo, mouse; conditions: one minimal erythemal dose of UVB daily for 10 weeks; tumours counted at weeks 11, 13, 14, 15, 16 and 17; versus control group
Source text: Hairless mouse strains such as the HRA-Skh-1 mice are a standard mouse model used to study solar damage to human skin (Canfield et al., 1985—reference 1). Exposure of the hairless mouse to UV light mimics “sunburn” in humans. With continued irradiation treatment, this on-going damage is reflected in progressive thickening of the skin which histologically mimics hyperkeratinization and elastosis associated with photoaging and chronically sun-exposed skin in humans. Pre-malignant tumours begin to appear within several weeks of completion of the ultra violet light regimen. Over an ensuing time period there is a progressive development of pre-malignant and malignant tumours, the histology and behaviour of which closely mimic keratoses and pre-malignant and malignant skin cancers that develop in humans in response to sunlight.
Hairless albino Sh:HR-1 mice are divided into two groups each containing 20 animals. The first group receiving Nle^4-D-Phe^7-alpha-MSH, and the second group being a control group. Both groups receive one minimal erythemal dose of UVB light to stimulate the toxic effect of sunlight on the skin daily for 10 weeks. At weeks 11, 13, 14, 15, 16 and 17 the number of skin tumours on each animal is measured and calculated as tumour multiplicity, i.e. average number of tumours per mouse.

Q: What does the source list for “[Nle^4,D-Phe^7]-alpha-MSH [Nle^4-D-Phe^7-α-MSH]”?
A: induction of melanin synthesis [1]: can induce melanin synthesis; protection against UVB induced carcinogenesis (tumour multiplicity, average number of tumours per mouse) [2]: Protection against UVB induced carcinogenesis is observed
